Assay results as given in ChEMBL document CHEMBL4665673, “Monomeric Targeted Protein Degraders” (J Med Chem, 2020).
One block for each molecule: values may come before it. Square brackets hold non-standard residues; d marks the D form. Peptide text beside a SMILES is read from it. Dip = N[C@H](C(=O)O)C(c1ccccc1)c1ccccc1; Chg = N[C@H](C(=O)O)C1CCCCC1; NMeA = CN[C@@H](C)C(=O)O

Assays:
[1] = biological target: T1, B-cell lymphoma 6 protein (Homo sapiens, UniProt P41182, C67R/C84N/C8Q); assay: Inhibition of BCL6 BTB domain (5 to 129 residues) C8Q/C67R/C84N triple mutant (unknown origin) expressed in Escherichia coli BL21(DE3) cells using 5-TAMRA-RSEIISTAPSSWVVPG incubated for 1 hr by fluorescence polarization assay
[2] = biological target: Histone-lysine N-methyltransferase EZH2 (Homo sapiens, UniProt Q15910); assay: Binding affinity to EZH2 (unknown origin)
Histone-lysine N-methyltransferase EZH2, sequence (Q15910 whole entry): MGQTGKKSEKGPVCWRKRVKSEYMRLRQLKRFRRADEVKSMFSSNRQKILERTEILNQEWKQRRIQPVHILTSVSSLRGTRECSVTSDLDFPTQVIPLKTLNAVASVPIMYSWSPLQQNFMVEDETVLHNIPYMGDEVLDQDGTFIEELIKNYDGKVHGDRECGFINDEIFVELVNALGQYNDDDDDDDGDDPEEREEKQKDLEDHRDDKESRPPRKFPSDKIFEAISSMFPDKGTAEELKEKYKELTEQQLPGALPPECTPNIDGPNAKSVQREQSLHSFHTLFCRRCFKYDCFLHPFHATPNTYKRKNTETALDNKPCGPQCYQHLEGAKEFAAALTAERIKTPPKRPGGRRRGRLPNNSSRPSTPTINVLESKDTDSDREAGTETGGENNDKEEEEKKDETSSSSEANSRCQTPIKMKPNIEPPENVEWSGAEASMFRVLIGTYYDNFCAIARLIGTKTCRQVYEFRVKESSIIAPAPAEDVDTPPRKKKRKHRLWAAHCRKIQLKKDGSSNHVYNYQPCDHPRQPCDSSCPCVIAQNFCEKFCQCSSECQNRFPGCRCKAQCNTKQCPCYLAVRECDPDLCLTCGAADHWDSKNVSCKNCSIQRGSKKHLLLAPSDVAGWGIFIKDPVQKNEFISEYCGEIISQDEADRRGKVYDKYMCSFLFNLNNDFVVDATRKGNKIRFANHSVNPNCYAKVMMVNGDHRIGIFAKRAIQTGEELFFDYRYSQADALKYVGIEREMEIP

[3] = biological target: B-cell lymphoma 6 protein (Homo sapiens) (UniProt P41182); assay: Induction of BCL6 degradation in human SU-DHL-4 cells at 5 uM measured after 5 mins by capillary electrophoresis relative to control; assay type: cell-based
[4] = biological target: B-cell lymphoma 6 protein (Homo sapiens) (UniProt P41182); assay: Induction of BCL6 degradation in human SU-DHL-4 cells at 5 uM measured after 2 hrs by capillary electrophoresis relative to control; assay type: cell-based
[5] = biological target: T1, B-cell lymphoma 6 protein; assay: Inhibition of BCOR peptide binding to BCL6 BTB domain (5 to 129 residues) C8Q/C67R/C84N triple mutant (unknown origin) expressed in Escherichia coli BL21(DE3) cells preincubated for 30 mins followed by BCOR ULight peptide addition and measured after 240 mins by TR-FRET assay
[6] = Antiproliferative activity against human SK-N-BE2 cells after 72 hrs by CyQUANT reagent based assay relative to control; assay type: functional; settings: SKNBE2
cells = settings: Homo sapiens, SKNBE2, 72 h
[7] = biological target: Leucine-rich repeat serine/threonine-protein kinase 2 (Homo sapiens, UniProt Q5S007, G2019S); assay: Inhibition of LRRK2 G2019S mutant (unknown origin)
Leucine-rich repeat serine/threonine-protein kinase 2, sequence (Q5S007 whole entry G2019S, the tested form may be a part): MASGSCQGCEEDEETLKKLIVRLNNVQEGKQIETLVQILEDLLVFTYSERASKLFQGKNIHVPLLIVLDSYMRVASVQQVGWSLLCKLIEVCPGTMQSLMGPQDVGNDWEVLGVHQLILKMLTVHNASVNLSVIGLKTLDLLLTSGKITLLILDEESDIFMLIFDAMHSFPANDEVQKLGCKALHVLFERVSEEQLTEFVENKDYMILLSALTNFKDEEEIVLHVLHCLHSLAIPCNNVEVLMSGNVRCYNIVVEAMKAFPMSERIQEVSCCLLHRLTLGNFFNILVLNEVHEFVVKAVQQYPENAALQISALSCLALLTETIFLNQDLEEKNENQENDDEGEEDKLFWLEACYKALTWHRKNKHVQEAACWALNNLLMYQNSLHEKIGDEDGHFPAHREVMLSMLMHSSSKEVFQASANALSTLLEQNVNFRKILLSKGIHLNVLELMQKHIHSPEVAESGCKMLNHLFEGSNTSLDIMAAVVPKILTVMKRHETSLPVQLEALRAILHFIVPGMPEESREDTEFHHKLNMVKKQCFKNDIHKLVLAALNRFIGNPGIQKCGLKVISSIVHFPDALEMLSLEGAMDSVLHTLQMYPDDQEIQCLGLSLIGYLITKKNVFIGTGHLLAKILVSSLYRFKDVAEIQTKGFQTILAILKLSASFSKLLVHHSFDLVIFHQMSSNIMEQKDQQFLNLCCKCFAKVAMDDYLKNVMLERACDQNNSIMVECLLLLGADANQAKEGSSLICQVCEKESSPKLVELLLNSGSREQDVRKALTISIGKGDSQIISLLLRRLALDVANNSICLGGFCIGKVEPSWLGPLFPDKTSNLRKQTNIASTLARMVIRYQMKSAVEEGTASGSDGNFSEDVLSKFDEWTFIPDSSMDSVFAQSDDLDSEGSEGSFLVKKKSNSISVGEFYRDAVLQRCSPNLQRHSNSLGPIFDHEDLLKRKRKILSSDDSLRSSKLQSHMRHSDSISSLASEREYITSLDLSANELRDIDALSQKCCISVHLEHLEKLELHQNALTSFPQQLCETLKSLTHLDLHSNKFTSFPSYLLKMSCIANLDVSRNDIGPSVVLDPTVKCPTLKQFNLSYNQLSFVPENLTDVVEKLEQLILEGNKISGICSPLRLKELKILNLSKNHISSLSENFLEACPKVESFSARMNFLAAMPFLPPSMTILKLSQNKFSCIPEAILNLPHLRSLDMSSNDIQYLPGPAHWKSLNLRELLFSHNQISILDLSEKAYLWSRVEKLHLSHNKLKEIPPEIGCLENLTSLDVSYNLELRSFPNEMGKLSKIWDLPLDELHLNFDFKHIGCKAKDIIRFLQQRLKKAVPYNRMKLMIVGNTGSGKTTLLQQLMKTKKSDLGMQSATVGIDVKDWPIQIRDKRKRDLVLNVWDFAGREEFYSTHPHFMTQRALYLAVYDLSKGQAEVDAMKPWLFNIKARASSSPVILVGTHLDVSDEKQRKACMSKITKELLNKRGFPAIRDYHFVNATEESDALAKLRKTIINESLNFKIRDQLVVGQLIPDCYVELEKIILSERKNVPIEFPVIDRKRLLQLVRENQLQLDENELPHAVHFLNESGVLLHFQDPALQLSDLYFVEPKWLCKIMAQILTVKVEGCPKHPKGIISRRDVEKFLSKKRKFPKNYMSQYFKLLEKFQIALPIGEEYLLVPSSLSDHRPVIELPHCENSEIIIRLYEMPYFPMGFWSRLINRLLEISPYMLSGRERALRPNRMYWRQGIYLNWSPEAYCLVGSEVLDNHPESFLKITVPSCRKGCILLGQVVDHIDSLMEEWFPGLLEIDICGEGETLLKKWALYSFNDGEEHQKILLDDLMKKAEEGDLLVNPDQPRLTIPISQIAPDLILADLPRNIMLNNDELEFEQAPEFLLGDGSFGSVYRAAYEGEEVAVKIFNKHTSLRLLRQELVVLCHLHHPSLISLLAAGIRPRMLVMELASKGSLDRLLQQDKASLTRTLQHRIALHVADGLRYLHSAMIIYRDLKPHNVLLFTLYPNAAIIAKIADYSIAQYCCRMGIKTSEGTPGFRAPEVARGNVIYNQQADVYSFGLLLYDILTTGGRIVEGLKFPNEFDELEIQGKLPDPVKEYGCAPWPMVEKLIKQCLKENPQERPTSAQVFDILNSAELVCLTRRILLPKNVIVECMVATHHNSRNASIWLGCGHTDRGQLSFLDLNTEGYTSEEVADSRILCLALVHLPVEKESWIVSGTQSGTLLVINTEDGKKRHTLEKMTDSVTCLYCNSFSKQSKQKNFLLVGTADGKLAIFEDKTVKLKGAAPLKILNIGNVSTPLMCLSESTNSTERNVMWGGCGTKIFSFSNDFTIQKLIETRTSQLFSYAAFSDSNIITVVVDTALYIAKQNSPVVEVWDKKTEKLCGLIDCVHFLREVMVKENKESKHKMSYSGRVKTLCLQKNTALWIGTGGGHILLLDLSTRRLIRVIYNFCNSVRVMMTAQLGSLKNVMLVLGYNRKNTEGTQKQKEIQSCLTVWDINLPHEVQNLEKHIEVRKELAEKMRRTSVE

[8] = biological target: E3 ubiquitin-protein ligase XIAP (Homo sapiens, UniProt P98170); assay: Binding affinity to XIAP-BIR3 (unknown origin) (124 to 240 residues) expressed in Escherichia coli BL21-Gold (DE3) by surface plasmon resonance assay
E3 ubiquitin-protein ligase XIAP, sequence (P98170 whole entry, the tested form may be a part): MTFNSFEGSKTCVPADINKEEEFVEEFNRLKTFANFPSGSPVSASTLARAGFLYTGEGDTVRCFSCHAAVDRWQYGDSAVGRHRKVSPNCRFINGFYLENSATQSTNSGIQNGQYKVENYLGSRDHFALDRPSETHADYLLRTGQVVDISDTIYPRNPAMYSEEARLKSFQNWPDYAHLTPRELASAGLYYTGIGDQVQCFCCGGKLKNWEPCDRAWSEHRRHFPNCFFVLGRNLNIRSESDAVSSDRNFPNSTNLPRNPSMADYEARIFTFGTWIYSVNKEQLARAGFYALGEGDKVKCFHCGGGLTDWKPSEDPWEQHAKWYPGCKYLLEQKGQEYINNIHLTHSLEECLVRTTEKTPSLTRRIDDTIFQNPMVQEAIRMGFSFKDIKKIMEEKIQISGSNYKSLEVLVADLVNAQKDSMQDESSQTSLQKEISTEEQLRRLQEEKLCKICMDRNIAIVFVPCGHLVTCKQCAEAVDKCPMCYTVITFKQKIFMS

[9] = biological target: Baculoviral IAP repeat-containing protein 2 (Homo sapiens, UniProt Q13490); assay: Binding affinity to c-IAP1-BIR3 (unknown origin) (124 to 240 residues) expressed in Escherichia coli BL21-Gold (DE3) by surface plasmon resonance assay
[10] = Selectivity ratio of IC50 for human IOSE144 cells to IC50 for human A2780 cells; assay type: functional
A2780 = assay: Growth inhibition of human A2780 cells incubated for 48 hrs by MTT assay; assay type: functional, cell-based; settings: A2780, 48 h
OVCAR-3 = assay: Growth inhibition of human OVCAR3 cells incubated for 48 hrs by MTT assay; assay type: functional, cell-based; settings: OVCAR-3, 48 h
[11] = Selectivity ratio of IC50 for human IOSE144 cells to IC50 for human OVCAR3 cells; assay type: functional
Androgen receptor = biological target: T2, Androgen receptor (Homo sapiens, UniProt P10275); assay: Inhibition of androgen receptor LBD domain (unknown origin)
T2 sequence (P10275 whole entry): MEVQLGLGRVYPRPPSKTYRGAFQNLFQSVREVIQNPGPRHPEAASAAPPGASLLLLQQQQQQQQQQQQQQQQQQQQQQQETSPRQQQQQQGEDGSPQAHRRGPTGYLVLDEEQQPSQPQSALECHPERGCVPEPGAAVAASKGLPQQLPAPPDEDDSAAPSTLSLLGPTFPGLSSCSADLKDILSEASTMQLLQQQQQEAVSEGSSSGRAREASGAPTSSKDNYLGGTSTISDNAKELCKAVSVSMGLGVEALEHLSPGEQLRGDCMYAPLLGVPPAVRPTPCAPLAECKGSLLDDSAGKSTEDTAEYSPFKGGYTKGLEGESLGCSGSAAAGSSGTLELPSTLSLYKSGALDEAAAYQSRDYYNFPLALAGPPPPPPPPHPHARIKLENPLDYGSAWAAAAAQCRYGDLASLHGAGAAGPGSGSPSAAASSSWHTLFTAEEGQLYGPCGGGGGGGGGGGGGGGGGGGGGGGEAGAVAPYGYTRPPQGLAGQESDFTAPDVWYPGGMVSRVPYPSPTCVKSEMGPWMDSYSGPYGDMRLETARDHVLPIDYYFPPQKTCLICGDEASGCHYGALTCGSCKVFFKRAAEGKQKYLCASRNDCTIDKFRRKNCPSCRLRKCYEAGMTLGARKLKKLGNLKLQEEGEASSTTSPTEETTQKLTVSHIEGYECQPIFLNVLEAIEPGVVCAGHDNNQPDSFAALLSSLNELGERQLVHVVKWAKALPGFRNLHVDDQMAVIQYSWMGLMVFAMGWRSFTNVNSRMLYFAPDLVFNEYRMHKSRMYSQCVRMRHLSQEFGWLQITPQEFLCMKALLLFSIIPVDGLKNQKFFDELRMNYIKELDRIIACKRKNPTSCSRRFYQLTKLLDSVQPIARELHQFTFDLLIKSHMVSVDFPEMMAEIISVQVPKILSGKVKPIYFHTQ

[12] = biological target: Non-receptor tyrosine-protein kinase TYK2 (Homo sapiens, UniProt P29597); assay: Inhibition of human TYK2 using 5FAM-KKSRGDYMTMQID as substrate by caliper microfluidic mobility shift assay
[13] = biological target: Tyrosine-protein kinase JAK1 (Homo sapiens, UniProt P23458); assay: Inhibition of human JAK1 using 5FAM-KKSRGDYMTMQID as substrate by caliper microfluidic mobility shift assay
Tyrosine-protein kinase JAK1, sequence (P23458 whole entry): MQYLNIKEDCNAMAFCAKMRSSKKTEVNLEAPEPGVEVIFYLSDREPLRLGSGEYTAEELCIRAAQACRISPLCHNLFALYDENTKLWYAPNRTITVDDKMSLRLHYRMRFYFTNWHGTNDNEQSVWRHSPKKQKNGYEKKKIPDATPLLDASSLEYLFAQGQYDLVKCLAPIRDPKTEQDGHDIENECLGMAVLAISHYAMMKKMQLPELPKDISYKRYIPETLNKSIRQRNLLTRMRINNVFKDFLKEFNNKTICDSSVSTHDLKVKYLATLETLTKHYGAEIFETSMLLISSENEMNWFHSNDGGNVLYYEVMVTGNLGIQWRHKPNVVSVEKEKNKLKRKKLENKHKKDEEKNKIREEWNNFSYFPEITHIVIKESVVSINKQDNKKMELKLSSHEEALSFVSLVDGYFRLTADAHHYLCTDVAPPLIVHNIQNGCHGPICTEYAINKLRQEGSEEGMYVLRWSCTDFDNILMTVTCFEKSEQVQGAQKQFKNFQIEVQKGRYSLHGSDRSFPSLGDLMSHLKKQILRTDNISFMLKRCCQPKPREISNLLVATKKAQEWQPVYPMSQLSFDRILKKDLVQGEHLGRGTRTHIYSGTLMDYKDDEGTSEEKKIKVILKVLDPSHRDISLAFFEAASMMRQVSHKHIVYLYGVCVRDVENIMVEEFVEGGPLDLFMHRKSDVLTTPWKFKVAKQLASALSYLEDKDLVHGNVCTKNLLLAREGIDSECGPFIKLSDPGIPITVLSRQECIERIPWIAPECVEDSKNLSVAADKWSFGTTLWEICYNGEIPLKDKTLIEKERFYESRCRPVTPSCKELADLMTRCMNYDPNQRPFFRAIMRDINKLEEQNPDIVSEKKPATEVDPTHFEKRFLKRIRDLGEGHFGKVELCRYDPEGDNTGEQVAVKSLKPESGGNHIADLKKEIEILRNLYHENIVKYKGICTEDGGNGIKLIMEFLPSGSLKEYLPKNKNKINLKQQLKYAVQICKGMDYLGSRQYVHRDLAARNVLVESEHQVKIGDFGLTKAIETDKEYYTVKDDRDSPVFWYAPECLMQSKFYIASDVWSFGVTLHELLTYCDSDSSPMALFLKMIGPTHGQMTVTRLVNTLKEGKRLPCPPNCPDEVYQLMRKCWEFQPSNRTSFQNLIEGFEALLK

[14] = Downregulation of JAK3 mRNA expression in human PBMC at 1 uM after 22 hrs by qPCR analysis relative to control; assay type: functional
[15] = biological target: Tyrosine-protein kinase JAK2 (Homo sapiens, UniProt O60674); assay: Inhibition of human JAK2 using FITC-KGGEEEEYFELVKK as substrate by caliper microfluidic mobility shift assay
[16] = biological target: T3, Tyrosine-protein kinase JAK3 (Homo sapiens, UniProt P52333); assay: Inhibition of human JAK3 using FITC-KGGEEEEYFELVKK as substrate by caliper microfluidic mobility shift assay
T3 sequence (P52333 whole entry): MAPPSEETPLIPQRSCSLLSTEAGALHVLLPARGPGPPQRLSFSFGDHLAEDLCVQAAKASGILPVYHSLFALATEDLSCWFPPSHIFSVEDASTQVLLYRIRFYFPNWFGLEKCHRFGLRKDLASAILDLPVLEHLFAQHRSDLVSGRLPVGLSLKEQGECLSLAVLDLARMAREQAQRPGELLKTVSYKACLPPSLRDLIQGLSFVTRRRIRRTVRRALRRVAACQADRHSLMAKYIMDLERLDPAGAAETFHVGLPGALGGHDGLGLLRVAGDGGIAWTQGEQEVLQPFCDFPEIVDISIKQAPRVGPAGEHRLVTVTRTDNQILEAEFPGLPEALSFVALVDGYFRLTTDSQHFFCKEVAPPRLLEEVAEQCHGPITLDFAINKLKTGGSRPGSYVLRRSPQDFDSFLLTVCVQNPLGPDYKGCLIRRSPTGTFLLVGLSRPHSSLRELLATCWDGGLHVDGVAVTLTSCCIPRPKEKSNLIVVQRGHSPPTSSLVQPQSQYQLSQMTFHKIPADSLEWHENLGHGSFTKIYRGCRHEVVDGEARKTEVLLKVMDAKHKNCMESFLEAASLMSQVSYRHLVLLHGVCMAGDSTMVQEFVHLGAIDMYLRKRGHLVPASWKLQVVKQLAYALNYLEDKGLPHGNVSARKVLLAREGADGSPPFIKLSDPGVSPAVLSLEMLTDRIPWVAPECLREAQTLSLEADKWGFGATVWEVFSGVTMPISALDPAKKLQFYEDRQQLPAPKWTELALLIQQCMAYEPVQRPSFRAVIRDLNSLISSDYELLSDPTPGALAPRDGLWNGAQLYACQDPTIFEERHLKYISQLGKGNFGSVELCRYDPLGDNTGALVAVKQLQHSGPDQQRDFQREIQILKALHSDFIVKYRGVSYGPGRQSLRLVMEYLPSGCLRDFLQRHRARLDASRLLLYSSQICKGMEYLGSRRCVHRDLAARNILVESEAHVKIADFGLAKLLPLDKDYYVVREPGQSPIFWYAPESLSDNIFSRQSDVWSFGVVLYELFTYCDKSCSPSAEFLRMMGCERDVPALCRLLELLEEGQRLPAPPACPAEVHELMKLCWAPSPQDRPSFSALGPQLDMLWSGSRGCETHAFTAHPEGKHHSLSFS

[17] = Downregulation of JAK2 mRNA expression in human PBMC at 1 uM after 22 hrs by qPCR analysis relative to control; assay type: functional

Compound: CC(C)=CCC/C(C)=C/Cc1c(O)c(CC=C(C)C)c2c(c1O)C(=O)C1=CC3CC4C(C)(C)OC(C/C=C(\C)C(=O)O)(C3=O)C14O2 (stereo unspecified)
- Kd [2]: 182 nM

Compound: COc1cc(Nc2ncc3c(n2)-c2ccc(Cl)cc2C(c2c(F)cccc2OC)=NC3)ccc1C(=O)O [ALISERTIB]
- Emax [6]: 37%

Compound: CN[C@@H](C)C(=O)N[C@H](C(=O)N1CCC[C@H]1C(=O)N[C@H](C(=O)OC)C(c1ccccc1)c1ccccc1)C1CCCCC1 (H-[NMeA][Chg]P[Dip]-OMe)
- Kd [8]: 16 nM
- Kd [9]: 6 nM

Compound: C[C@H]1[C@@H](O)O[C@@H]2O[C@@]3(C)CC[C@H]4[C@H](C)CC[C@@H]1[C@@]24OO3 [ARTENIMOL]
- Ratio IC50 [10]: 5
- IC50 (A2780): 1000 nM
- IC50 (OVCAR-3): 1000 nM
- Ratio IC50 [11]: 5

Compound: CNc1nc(Nc2cn(C(C)(C)C#N)nc2C)ncc1C(F)(F)F [DNL-201]
- Ki [7]: 0.6 nM

Compound: CC(=O)N1CCN(CCOc2ccc(C3CCN(C4=Nn5c(nnc5C(F)(F)F)CC4)CC3)cc2)CC1 [AZD3514]
- Ki (Androgen receptor): 5000 nM

The next lines start with results.

- IC50 [1]: 18000 nM
Compound: Cc1cc(C)n(-c2ncc(Cl)c(Nc3ccc(Cl)cc3)n2)n1

- Activity [3]: 50%
- Activity [4]: > 90%
- IC50 [5]: 3 nM
Compound: CNC(=O)COc1cc2cc(Nc3nc(N4C[C@H](C)C[C@H](C)C4)ncc3Cl)cc(OC)c2n(C)c1=O

- Activity [3]: 50%
- Activity [4]: > 90%
Compound: CNC(=O)COc1cc2cc(Nc3nc(N4CCC(C(=O)N(C)C)CC4)ncc3Cl)cc(OC)c2n(C)c1=O

- Kd [2]: 116 nM
Compound: CCOCCNC(=O)/C(C)=C/CC12OC(C)(C)C3CC(C=C4C(=O)c5c(O)c(C/C=C(\C)CCC=C(C)C)c(O)c(CC=C(C)C)c5OC431)C2=O (stereo unspecified)

- EC50 (cells): 223 nM
Compound: O=C(Nc1ccc(Nc2nccc(Nc3cc(C4CCCC4)[nH]n3)n2)cc1)Nc1cccc(C(F)(F)F)c1
- Emax [6]: 14%

- Ki [7]: 1 nM
Compound: CCNc1nc(Nc2cc(F)c(C(=O)N3CCOCC3)cc2OC)ncc1C(F)(F)F

- IC50 [12]: 128 nM
- IC50 [13]: 7.5 nM
- IC50 [15]: 7.1 nM
- IC50 [16]: 2.8 nM
Compound: C[C@@H]1CCN(C(=O)N2CCCC2)C[C@@H]1N(C)c1ncnc2[nH]ccc12
- Activity [14]: 50%
- Activity [17]: 50%
